From ChEMBL document CHEMBL2375210, “Caulerprenylols A and B, two rare antifungal prenylated para-xylenes from the green alga Caulerpa racemosa” (Bioorg Med Chem Lett, 2013)
Converted amounts (≈) assume the structure as drawn.

Columns and labels:
Trichophyton rubrum = test: Antifungal activity against Trichophyton rubrum Cmccftla after 24 hrs to 1 week; assay type: functional
Nakaseomyces glabratus = test: Antifungal activity against Candida glabrata ATCC 537 after 24 hrs to 1 week; assay type: functional
Cryptococcus neoformans = test: Antifungal activity against Cryptococcus neoformans ATCC 32609 after 24 hrs to 1 week; assay type: functional
A549 = test: Cytotoxicity against human A549 cells by MTT assay; assay type: cell-based
HL-60 = test: Cytotoxicity against human HL60 cells by MTT assay; assay type: cell-based
Aspergillus fumigatus = test: Antifungal activity against Aspergillus fumigatus ATCC 07544 after 24 hrs to 1 week; assay type: functional

MIC80 (Trichophyton rubrum)	MIC80 (Nakaseomyces glabratus)	MIC80 (Cryptococcus neoformans)	MIC80 (Aspergillus fumigatus)	Compound	IC50 (A549)	IC50 (HL-60)
1 mg/L (≈ 1.08 µM)	2 mg/L (≈ 2.16 µM)	4 mg/L (≈ 4.33 µM)		C[C@@H]1[C@H](O)[C@@H](C)/C=C/C=C/C=C/C=C/C=C/C=C/C=C/[C@H](O[C@@H]2O[C@H](C)[C@@H](O)[C@H](N)[C@@H]2O)C[C@@H]2O[C@](O)(C[C@@H](O)C[C@@H](O)[C@H](O)CC[C@@H](O)C[C@@H](O)CC(=O)O[C@H]1C)C[C@H](O)[C@H]2C(=O)O [AMPHOTERICIN B]		
16 mg/L (≈ 58.3 µM)	4 mg/L (≈ 14.6 µM)	4 mg/L (≈ 14.6 µM)	≥ 64 mg/L	CC(C)=C[C@H]1c2c(C)ccc(C)c2[C@@H](O)[C@@H]1C(C)(C)O (relative stereo)	≥ 100 µM	≥ 100 µM
64 mg/L (≈ 233 µM)	64 mg/L (≈ 233 µM)	64 mg/L (≈ 233 µM)	≥ 64 mg/L	Cc1ccc(C)c(/C=C/C(C)(C)O)c1/C=C/C(C)(C)O	≥ 100 µM	≥ 100 µM
				COc1cccc2c1C(=O)c1c(O)c3c(c(O)c1C2=O)C[C@@](O)(C(=O)CO)C[C@@H]3O[C@H]1C[C@H](N)[C@H](O)[C@H](C)O1 [DOXORUBICIN]		0.12 µM
